From patent US11332459B2 (TEIJIN PHARMA LIMITED, priority 2017, dated 2022) come the findings set out here.

Each structure is given as a SMILES string. Where a name gives a salt, the structure may show the parent alone.

For this assay, the target named is T1, human TRPC6 (Homo sapiens, UniProt Q9Y210).
T1 construct: expressed in transfected cells
T1 sequence (Q9Y210 1-931): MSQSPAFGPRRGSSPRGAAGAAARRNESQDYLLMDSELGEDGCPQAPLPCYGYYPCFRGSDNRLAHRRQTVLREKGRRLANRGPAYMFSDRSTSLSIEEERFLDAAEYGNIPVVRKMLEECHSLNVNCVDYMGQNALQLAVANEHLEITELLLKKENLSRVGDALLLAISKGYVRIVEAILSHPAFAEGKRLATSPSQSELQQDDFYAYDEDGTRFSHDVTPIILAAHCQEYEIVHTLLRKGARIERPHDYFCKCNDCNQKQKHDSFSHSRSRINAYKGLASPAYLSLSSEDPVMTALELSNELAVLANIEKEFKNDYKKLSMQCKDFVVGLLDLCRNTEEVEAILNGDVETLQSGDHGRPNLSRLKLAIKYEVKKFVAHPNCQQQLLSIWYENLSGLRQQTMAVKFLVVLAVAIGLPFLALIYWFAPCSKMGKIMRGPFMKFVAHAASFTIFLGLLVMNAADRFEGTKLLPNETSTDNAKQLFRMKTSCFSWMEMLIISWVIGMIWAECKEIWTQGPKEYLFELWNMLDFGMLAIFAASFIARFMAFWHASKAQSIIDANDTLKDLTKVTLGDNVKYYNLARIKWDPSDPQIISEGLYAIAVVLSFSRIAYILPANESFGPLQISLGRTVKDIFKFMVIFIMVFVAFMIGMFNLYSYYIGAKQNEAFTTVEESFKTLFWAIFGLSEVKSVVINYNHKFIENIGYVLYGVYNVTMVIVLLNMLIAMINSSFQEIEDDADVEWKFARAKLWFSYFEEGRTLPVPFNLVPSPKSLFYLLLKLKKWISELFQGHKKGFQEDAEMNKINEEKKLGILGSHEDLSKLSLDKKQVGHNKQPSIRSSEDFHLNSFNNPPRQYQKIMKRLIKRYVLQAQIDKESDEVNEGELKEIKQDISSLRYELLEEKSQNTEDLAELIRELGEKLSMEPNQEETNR
The assay is described as follows: TRPC6 calcium flux assay (FLIPR, OAG-stimulated calcium influx). Format: cell-based. To be noted: HEK293 cells stably transfected with human TRPC6, read-out: hTRPC6 Potency. Summed up: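 IC50 derived by plotting background-corrected peak fluorescence (180 s window, normalized to OAG-triggered signal vs buffer) against dose. Stable human TRPC6 HEK293 line was dye-loaded, exposed to compound 25 min, then challenged with 50 uM final OAG in 2 mM Ca2+ HEPES buffer pH 7.2, 0.5% DMSO.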
Regarding `N#Cc1ccc(Cn2c(N3CC[C@@H]4CCN[C@@H]4C3)nc3ccccc32)nc1` [Example 24, 6-((2-((3aS,7aS)-hexahydro-1H-pyrrolo[2,3-c]pyridin-6(2H)-yl)-1H-benzo[d]imidazol-1-yl)methyl)nicotinonitrile], the IC50 was 145 nM.

Consider `N#Cc1ccc(Cn2c(N3CCC4CCN[C@@H]4C3)nc3ccccc32)nc1` (stereo partly drawn) [Example 25, 6-((2-((3aS,7aS)-hexahydro-1H-pyrrolo[2,3-c]pyridin-6(2H)-yl)-1H-benzo[d]imidazol-1-yl)methyl)nicotinonitrile], for which the IC50 came out at 210 nM.

`N#Cc1ccc(Cn2c(N3CCC4CCN[C@H]4C3)nc3ccccc32)nc1` (stereo partly drawn) [Example 26, 6-((2-((3aS,7aR)-hexahydro-1H-pyrrolo[2,3-c]pyridin-6(2H)-yl)-1H-benzo[d]imidazol-1-yl)methyl)nicotinointrile]: the IC50 is 161 nM.

For the compound `N#Cc1ccc(Cn2c(N3CCC[C@@]4(CCN4)C3)nc3ccccc32)nc1` [Example 27, (R)-6-((2-(1,6-diazaspiro[3.5]nonan-6-yl)-1H-benzo[d]imidazol-1-yl)methyl)nicotinointrile], the IC50 came to 73.5 nM.

On to `N#Cc1ccc(Cn2c(N3CCC[C@]4(CCN4)C3)nc3ccccc32)nc1` [Example 28, (S)-6-((2-(1,6-diazaspiro[3.5]nonan-6-yl)-1H-benzo[d]imidazol-1-yl)methyl)nicotinonitrile], for which the IC50 is over 3750 nM.

Turning to `CS(=O)(=O)c1ccc2nc(N3CC[C@@H](F)[C@H](N)C3)n(Cc3ccc(Cl)cn3)c2c1` [Example 29, (3R,4R)-1-(1-((5-chloropyridin-2-yl)methyl)-6-(methylsulfonyl)-1H-benzo[d]imidazol-2-yl)-4-fluoropiperidin-3-amine], the IC50 was 44.8 nM.

For the compound `CS(=O)(=O)c1ccc2c(c1)nc(N1CC[C@@H](F)[C@H](N)C1)n2Cc1ccc(Cl)cn1` [Example 30, (3R,4R)-1-(1-((5-chloropyridin-2-yl)methyl)-5-(methylsulfonyl)-1H-benzo[d]imidazol-2-yl)-4-fluoropiperidin-3-amine], the IC50 was determined as 1940 nM.

Turning to `N#Cc1cc(F)cc2c1nc(N1CC[C@@H](F)[C@H](N)C1)n2Cc1ncc(Cl)cn1` [Example 31, 2-((3R,4R)-3-amino-4-fluoropiperidin-1-yl)-1-((5-chloropyrimidin-2-yl)methyl)-6-fluoro-1H-benzo[d]imidazole-4-carbonitrile], the IC50 came out at 0.476 nM.

In the case of `N[C@@H]1CN(c2nc3cc(F)cc(F)c3n2Cc2ccc(F)cn2)CC[C@H]1F` [Example 32, (3R,4R)-1-(5,7-difluoro-1-((5-fluoropyridin-2-yl)methyl)-1H-benzo[d]imidazol-2-yl)-4-fluoropiperidin-3-amine], the IC50 is 47.2 nM.

`N[C@@H]1CN(c2nc3c(F)cc(F)cc3n2Cc2ccc(F)cn2)CC[C@H]1F` [Example 33, (3R,4R)-1-(4,6-difluoro-1-((5-fluoropyridin-2-yl)methyl)-1H-benzo[d]imidazol-2-yl)-4-fluoropiperidin-3-amine]: the IC50 was 0.432 nM.

`N[C@@H]1CN(c2nc3cc(F)cc(F)c3n2Cc2ncc(F)cn2)CC[C@H]1F` [Example 34, (3R,4R)-1-(5,7-difluoro-1-((5-fluoropyrimidin-2-yl)methyl)-1H-benzo[d]imidazol-2-yl)-4-fluoropiperidin-3-amine]: the IC50 was 68.9 nM.

Consider `N[C@@H]1CN(c2nc3c(F)cc(F)cc3n2Cc2ncc(F)cn2)CC[C@H]1F` [Example 35, (3R,4R)-1-(4,6-difluoro-1-((5-fluoropyrimidin-2-yl)methyl)-1H-benzo[d]imidazol-2-yl)-4-fluoropiperidin-3-amine], for which the IC50 is 0.491 nM.

As to `N#Cc1cc(F)cc2c1nc(N1CC[C@H](F)[C@H](N)C1)n2Cc1ncc(F)cn1` [Example 36, 2-((3R,4S)-3-amino-4-fluoropiperidin-1-yl)-6-fluoro-1-((5-fluoropyrimidin-2-yl)methyl)-1H-benzo[d]imidazole-4-carbonitrile], the IC50 stood at 6.13 nM.

In the case of `N#Cc1cc(F)cc2c1nc(N1CC[C@@H](F)[C@H](N)C1)n2Cc1ncc(F)cn1` [Example 37, 2-((3R,4R)-3-amino-4-fluoropiperidin-1-yl)-6-fluoro-1-((5-fluoropyrimidin-2-yl)methyl)-1H-benzo[d]imidazole-4-carbonitrile], the IC50 turned out to be 6.92 nM.

Turning to `N#Cc1ccc(Cn2c(N3CC[C@@H](F)[C@H](N)C3)nc3ccccc32)nc1` [Example 38, 6-((2-((3R,4R)-3-amino-4-fluoropiperidin-1-yl)-1H-benzo[d]imidazol-1-yl)methyl)nicotinonitrile], the IC50 was 0.72 nM.

`N[C@@H]1CN(c2nc3ccc(F)cc3n2Cc2ncc(Cl)cn2)CC[C@@H]1F` [Example 39, (3R,4S)-1-(1-((5-chloropyrimidin-2-yl)methyl)-6-fluoro-1H-benzo[d]imidazol-2-yl)-4-fluoropiperidin-3-amine]: the IC50 was determined as 0.867 nM.

As to `N[C@@H]1CN(c2nc3cc(F)ccc3n2Cc2ncc(Cl)cn2)CC[C@@H]1F` [Example 40, (3R,4S)-1-(1-((5-chloropyrimidin-2-yl)methyl)-5-fluoro-1H-benzo[d]imidazol-2-yl)-4-fluoropiperidin-3-amine], the IC50 turned out to be 4.61 nM.

With `N#Cc1ccc2nc(N3CCC(F)(F)[C@H](N)C3)n(Cc3ncc(Cl)cn3)c2c1` [Example 41, (R)-2-(3-amino-4,4-difluoropiperidin-1-yl)-1-((5-chloropyrimidin-2-yl)methyl)-1H-benzo[d]imidazole-6-carbonitrile], the IC50 came out at 18.4 nM.

`N#Cc1ccc2c(c1)nc(N1CCC(F)(F)[C@H](N)C1)n2Cc1ncc(Cl)cn1` [Example 42, (R)-2-(3-amino-4,4-difluoropiperidin-1-yl)-1-((5-chloropyrimidin-2-yl)methyl)-1H-benzo[d]imidazole-5-carbonitrile]: the IC50 was determined as 1940 nM.

Consider `N#Cc1ccc(Cn2c(N3CC[C@@H](F)[C@H](N)C3)nc3cc(Cl)c(Cl)cc32)nc1` [Example 43, 6-((2-((3R,4R)-3-amino-4-fluoropiperidin-1-yl)-5,6-dichloro-1H-benzo[d]imidazol-1-yl)methyl)nicotinonitrile], for which the IC50 was 0.581 nM.

`Cc1cc2nc(N3CC[C@@H](F)[C@H](N)C3)n(Cc3ccc(C#N)cn3)c2cc1C` [Example 44]: the IC50 came out at 0.952 nM.

Turning to `N#Cc1ccc(Cn2c(N3CCC[C@H](N)C3)nc3ccc(F)cc32)nc1` [Example 45, (S)-6-((2-(3-aminopiperidin-1-yl)-6-fluoro-1H-benzo[d]imidazol-1-yl)methyl)nicotinonitrile hydrochloride], the IC50 was determined as 2.36 nM.

On to `N#Cc1ccc(Cn2c(N3CCC[C@H](N)C3)nc3cc(F)ccc32)nc1` [Example 46, (S)-6-((2-(3-aminopiperidin-1-yl)-5-fluoro-1H-benzo[d]imidazol-1-yl)methyl)nicotinonitrile hydrochloride], for which the IC50 came to 1.78 nM.

`N#Cc1ccc(Cn2c(N3CC[C@H](F)[C@H](N)C3)nc3ccc(F)cc32)nc1` [Example 47, 6-((2-((3R,4S)-3-amino-4-fluoropiperidin-1-yl)-6-fluoro-1H-benzo[d]imidazol-1-yl)methyl)nicotinonitrile hydrochloride]: the IC50 is 0.686 nM.

Consider `N#Cc1ccc(Cn2c(N3CC[C@H](F)[C@H](N)C3)nc3cc(F)ccc32)nc1` [Example 48, 6-((2-((3R,4S)-3-amino-4-fluoropiperidin-1-yl)-5-fluoro-1H-benzo[d]imidazol-1-yl)methyl)nicotinonitrile hydrochloride], for which the IC50 stood at 2.21 nM.

Regarding `N#Cc1ccc(Cn2c(N3CC[C@@H](F)[C@H](N)C3)nc3cc(F)ccc32)nc1` [Example 49, 6-((2-((3R,4R)-3-amino-4-fluoropiperidin-1-yl)-5-fluoro-1H-benzo[d]imidazol-1-yl)methyl)nicotinonitrile hydrochloride], the IC50 is 1.09 nM.

Consider `N#Cc1ccc(Cn2c(N3CCC[C@H](N)C3)nc3ccc(C#N)cc32)nc1` [Example 51, (S)-2-(3-aminopiperidin-1-yl)-1-((5-cyanopyridin-2-yl)methyl)-1H-benzo[d]imidazole-6-carbonitrile], for which the IC50 came to 6.47 nM.

`N#Cc1ccc(Cn2c(N3CCC[C@H](N)C3)nc3cc(C#N)ccc32)nc1` [Example 52, (S)-2-(3-aminopiperidin-1-yl)-1-((5-cyanopyridin-2-yl)methyl)-1H-benzo[d]imidazole-5-carbonitrile]: the IC50 was 24.2 nM.

As to `N#Cc1ccc(Cn2c(N3CC[C@@H](F)[C@H](N)C3)nc3ccc(C#N)cc32)nc1` [Example 53, 2-((3R,4R)-3-amino-4-fluoropiperidin-1-yl)-1-((5-cyanopyridin-2-yl)methyl)-1H-benzo[d]imidazole-6-carbonitrile], the IC50 worked out at 1.52 nM.
